# Measurements taken from the supplement of paper PMC10331698.
# ± gives the standard deviation of the averaged measurements.
# Experiments:
# Assay in all cases: level (log10 ratio to DMSO vehicle control); higher = higher biomarker level / cell amount than vehicle control
# Settings in all cases: in DMSO
# [1] = compound: FC(F)(F)C(F)(F)C(F)(F)C(F)(F)C(F)(F)C(F)(F)CC1CO1 [3-(Perfluorohexyl)-1,2-epoxypropane]
# Experimental: (§1)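 BioMAP Diversity Plus panel of 12 human primary cell co-culture systems (3C, 4H, LPS, SAg, BT, BF4T, BE3C, CASM3C, HDF3CGF, KF3CT, MyoF, Mphg). Compounds were added 1 h before stimulation and left for 24 h (MyoF 48 h; BT 72 h for soluble read-outs or 6 d for IgG). Biomarkers were read by ELISA, cytotoxicity by SRB, PBMC viability and proliferation by Alamar Blue. Each well value was divided by the mean of 8 DMSO control wells on the same plate and log10 transformed; duplicate blinded samples were tested at 4 concentrations.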
# [2] = compound: O=C(O)C(F)(F)C(F)(F)C(F)(F)C(F)(F)C(F)(F)C(F)(F)C(F)(F)C(F)(F)C(F)(F)C(F)F [11-H-Perfluoroundecanoic acid]
# Experimental: as §1
# [3] = compound: O=S(=O)(O)C(F)(F)C(F)(F)C(F)(F)C(F)(F)C(F)(F)C(F)(F)C(F)(F)C(F)(F)C(F)(F)C(F)(F)F [Sodium perfluorodecanesulfonate]
# Experimental: as §1
# [4] = compound: NC(=O)C(F)(F)C(F)(F)C(F)(F)C(F)F
# Experimental: as §1
# [5] = compound: C=C(C)C(=O)OCCC(F)(F)C(F)(F)C(F)(F)C(F)(F)C(F)(F)C(F)(F)F [6:2 Fluorotelomer methacrylate]
# Experimental: as §1
Test System,level (log10) ([1]; 6700 nM),level (log10) ([1]; 20000 nM),level (log10) ([1]; 60000 nM),level (log10) ([2]; 6700 nM),level (log10) ([2]; 20000 nM),level (log10) ([3]; 1500 nM),level (log10) ([3]; 4400 nM),level (log10) ([3]; 13000 nM),level (log10) ([3]; 40000 nM),level (log10) ([4]; 6700 nM),level (log10) ([4]; 20000 nM),level (log10) ([4]; 60000 nM),level (log10) ([5]; 6700 nM),level (log10) ([5]; 20000 nM),level (log10) ([5]; 60000 nM)
HDF3CGF:PAI-I,-0.0375 ± 0.019,-0.022 ± 0.033,-0.0115 ± 0.05,0.018 ± 0.0099,-0.0045 ± 0.0035,0.0815 ± 0.042,0.159 ± 0.0028,0.129 ± 0.041,0.147 ± 0.038,-0.012 ± 0.011,-0.016 ± 0.0099,0 ± 0.038,-0.0695 ± 0.083,-0.057 ± 0.064,-0.0415 ± 0.057
CASM3C:M-CSF,-0.0025 ± 0.012,-0.0125 ± 0.011,0.0325 ± 0.056,0.0055 ± 0.0035,-0.004 ± 0.0099,0.0465 ± 0.0064,0.0285 ± 0.0035,0.03 ± 0.014,0.14 ± 0.079,-0.0485 ± 0.021,-0.0535 ± 0.046,0.019 ± 0.082,-0.004 ± 0.011,0.002 ± 0.0014,0.024 ± 0.021
3C:CD62E/E-Selectin,-0.035 ± 0.013,-0.0375 ± 0.005,-0.0415 ± 0.0078,-0.0045 ± 0.025,0.0205 ± 0.013,0.0005 ± 0.0035,0.002 ± 0.0071,0.0185 ± 0.028,0.057 ± 0.05,-0.0055 ± 0.022,-0.027 ± 0.0014,-0.016 ± 0.018,-0.0145 ± 0.015,-0.01 ± 0.033,-0.0135 ± 0.035
3C:CD141/Thrombomodulin,-0.0025 ± 0.028,-0.0095 ± 0.00071,-0.0075 ± 0.0035,-0.0065 ± 0.005,-0.0255 ± 0.033,-0.015 ± 0.031,-0.052 ± 0.013,-0.0325 ± 0.019,-0.0565 ± 0.0035,-0.0285 ± 0.074,0 ± 0.03,-0.0075 ± 0.026,-0.0155 ± 0.042,-0.014 ± 0.048,-0.072 ± 0.014
HDF3CGF:EGFR,-0.0135 ± 0.011,-0.01 ± 0.011,-0.0055 ± 0.036,-0.022 ± 0.011,-0.124 ± 0.018,-0.009 ± 0.067,-0.0295 ± 0.0092,-0.001 ± 0.0014,0.079 ± 0.0099,0.001 ± 0.033,0.0025 ± 0.046,0.0125 ± 0.043,0.004 ± 0.0071,0.0275 ± 0.028,0.0155 ± 0.0092
3C:CD142/Tissue Factor,-0.042 ± 0.027,-0.05 ± 0.028,-0.0195 ± 0.029,-0.011 ± 0.011,-0.0245 ± 0.013,-0.0005 ± 0.04,-0.0075 ± 0.015,0.0205 ± 0.025,-0.0695 ± 0.0078,-0.0025 ± 0.066,0.006 ± 0.033,0.0115 ± 0.036,0.0295 ± 0.0021,0.034 ± 0.013,0.021 ± 0.054
BE3C:SRB,0.008 ± 0.0057,0.0025 ± 0.0064,0.011 ± 0.018,-0.0095 ± 0.0064,-0.235 ± 0.011,0.0005 ± 0.0021,0 ± 0.0014,-0.0555 ± 0.028,-0.368 ± 0.069,-0.0035 ± 0.0035,0.0005 ± 0.005,-0.0055 ± 0.0021,0.0015 ± 0.0035,0.003 ± 0.0028,0.0025 ± 0.0021
3C:Proliferation,-0.013 ± 0.0042,-0.0055 ± 0.054,-0.0375 ± 0.035,-0.0185 ± 0.074,0.0405 ± 0.016,-0.0815 ± 0.013,-0.056 ± 0.017,-0.038 ± 0.02,-0.229 ± 0.011,-0.0385 ± 0.049,-0.038 ± 0.061,-0.03 ± 0.031,0.0005 ± 0.028,-0.003 ± 0.089,-0.013 ± 0.0085
HDF3CGF:Proliferation 72hr,-0.014 ± 0.052,-0.0355 ± 0.049,0 ± 0.069,-0.253 ± 0.048,-0.443 ± 0.0028,0.098 ± 0.023,0.23 ± 0.037,0.316 ± 0.013,0.301 ± 0.021,-0.0005 ± 0.046,-0.0245 ± 0.06,-0.0205 ± 0.037,-0.0385 ± 0.035,-0.0525 ± 0.015,-0.0545 ± 0.0021
KF3CT:TIMP-2,-0.0095 ± 0.0064,-0.014 ± 0.013,0.003 ± 0.041,-0.001 ± 0.0071,-0.012 ± 0.0071,-0.0205 ± 0.056,-0.015,0.044 ± 0.02,0.005 ± 0.034,-0.006 ± 0.0057,-0.005 ± 0.013,0.0015 ± 0.019,-0.0445 ± 0.0064,0.008 ± 0.013,0.022 ± 0.038
MyoF:SRB,-0.007 ± 0.0057,-0.005 ± 0.0057,0.0015 ± 0.011,-0.001 ± 0.0014,-0.086 ± 0.0028,0.0205 ± 0.016,0.029 ± 0.0042,0.0115 ± 0.012,-0.018 ± 0.0085,-0.006 ± 0.0042,-0.0175 ± 0.012,-0.003,-0.0025 ± 0.0092,-0.0015 ± 0.005,0.0085 ± 0.012
3C:CCL2/MCP-1,0.011 ± 0.02,-0.004 ± 0.0014,0.021 ± 0.031,-0.0085 ± 0.0035,0 ± 0.017,0.0315 ± 0.005,-0.0195 ± 0.026,0.005 ± 0.033,0.0655 ± 0.032,-0.01 ± 0.013,-0.0135 ± 0.011,0.015 ± 0.042,0.01 ± 0.051,-0.0025 ± 0.016,0.022 ± 0.028
lMphg:CCL2/MCP-1,-0.009 ± 0.031,-0.0255 ± 0.026,0.0025 ± 0.044,-0.0145 ± 0.025,0.0085 ± 0.028,0.022 ± 0.0028,-0.0035 ± 0.013,0.0135 ± 0.005,0.0225 ± 0.026,0.004,-0.0065 ± 0.012,0.0255 ± 0.018,-0.005 ± 0.0085,-0.009 ± 0.0014,0.004 ± 0.0071
CASM3C:Proliferation,0.001 ± 0.021,-0.0035 ± 0.005,0.027 ± 0.027,-0.0495 ± 0.015,0.0005 ± 0.043,0.017 ± 0.0057,0.0585 ± 0.061,-0.006 ± 0.059,0.0275 ± 0.03,0.002 ± 0.071,-0.0145 ± 0.023,0.014 ± 0.025,-0.0395 ± 0.046,-0.042 ± 0.031,0.0115 ± 0.0092
3C:SRB,0.009 ± 0.0042,0.014 ± 0.0085,0.018 ± 0.0099,0.0095 ± 0.012,0.01 ± 0.025,-0.0035 ± 0.0035,-0.0155 ± 0.016,-0.04 ± 0.021,-0.191 ± 0.0028,-0.0075 ± 0.019,-0.013 ± 0.0014,-0.019 ± 0.023,-0.004 ± 0.014,-0.0025 ± 0.0078,0 ± 0.018
BE3C:uPA,-0.005 ± 0.014,-0.006 ± 0.0042,0.007 ± 0.02,-0.005 ± 0.02,-0.211 ± 0.029,-0.027 ± 0.0057,-0.032 ± 0.034,-0.019 ± 0.017,-0.051 ± 0.027,-0.01 ± 0.0057,-0.013 ± 0.0085,-0.0045 ± 0.013,0.0055 ± 0.0064,0.0085 ± 0.0092,0.019 ± 0.021
CASM3C:CXCL9/MIG,-0.014 ± 0.025,-0.007 ± 0.016,0.0005 ± 0.026,0 ± 0.0071,-0.009 ± 0.018,0.0195 ± 0.036,-0.0105 ± 0.011,0.0285 ± 0.043,0.0875 ± 0.043,-0.0075 ± 0.021,-0.0055 ± 0.0035,0.0005 ± 0.0078,0.011 ± 0.016,0.0255 ± 0.012,0.041 ± 0.0099
KF3CT:CXCL8/IL-8,0.012 ± 0.018,0.0175 ± 0.022,0.022 ± 0.0042,0.0005 ± 0.019,0.0445 ± 0.012,0 ± 0.044,-0.0125 ± 0.0064,-0.0175 ± 0.012,-0.0105 ± 0.005,-0.009 ± 0.0028,0.011 ± 0.011,0.019 ± 0.011,-0.004 ± 0.0057,0.0085 ± 0.011,-0.007 ± 0.011
3C:CXCL9/MIG,0.0065 ± 0.0064,-0.011 ± 0.0071,0.013 ± 0.0099,-0.005 ± 0.0085,-0.002,-0.005 ± 0.0099,-0.018 ± 0.011,-0.0025 ± 0.0064,0.001 ± 0.0057,-0.0095 ± 0.011,-0.012 ± 0.0014,-0.0045 ± 0.0021,-0.001 ± 0.0014,0.0025 ± 0.012,0.0105 ± 0.023
lMphg:CCL3/MIP-1alpha,-0.0345 ± 0.035,-0.029 ± 0.034,-0.009 ± 0.021,-0.023 ± 0.023,-0.027 ± 0.0057,-0.008 ± 0.025,0.0015 ± 0.012,0.0195 ± 0.047,0.0425 ± 0.0035,-0.039 ± 0.0099,-0.0295 ± 0.018,-0.006 ± 0.0028,0.0005 ± 0.066,-0.0185 ± 0.061,0.003 ± 0.04
